Measurements reported in publication PMC6009894, “Molecular modelling insights into a physiologically favourable approach to eicosanoid biosynthesis inhibition through novel thieno[2,3-b]pyridine derivatives” (Journal of Enzyme Inhibition and Medicinal Chemistry, 2018).
Where “and” joins values, the source holds several entries; their conditions need not be identical. Equal entries are not always repeated.

Legend:
COX-1 (human) = biological target: T1, COX-1 (human) (Homo sapiens, UniProt P23219); test: COX-1 (human) Inhibitor Screening Assay Kit (Cayman); assay type: biochemical
T1 construct: purchased Cayman (Ann Arbor, MI) 701070
T1 sequence (P23219 24-599): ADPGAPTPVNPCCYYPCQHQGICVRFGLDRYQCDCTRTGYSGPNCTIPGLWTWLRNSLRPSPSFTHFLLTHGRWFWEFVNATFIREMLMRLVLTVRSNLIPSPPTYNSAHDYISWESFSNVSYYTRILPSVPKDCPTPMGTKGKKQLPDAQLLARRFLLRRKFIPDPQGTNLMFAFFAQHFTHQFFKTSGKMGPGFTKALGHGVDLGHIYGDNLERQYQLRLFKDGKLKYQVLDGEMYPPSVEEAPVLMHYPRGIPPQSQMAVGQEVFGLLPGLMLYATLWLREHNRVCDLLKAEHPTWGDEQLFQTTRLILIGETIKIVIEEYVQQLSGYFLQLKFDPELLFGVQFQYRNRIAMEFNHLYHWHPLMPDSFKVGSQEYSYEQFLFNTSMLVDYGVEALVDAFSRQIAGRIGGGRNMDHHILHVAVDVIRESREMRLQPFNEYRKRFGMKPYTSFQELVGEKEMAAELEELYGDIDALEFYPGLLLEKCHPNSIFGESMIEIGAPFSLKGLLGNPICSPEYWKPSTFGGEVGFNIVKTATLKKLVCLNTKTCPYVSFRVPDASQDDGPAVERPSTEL
Description: (§1) The used protocol was according to the manufacturer protocol guide and instructions using ELISA plate reader.

5-LOX = biological target: T2, 5-LOX (Homo sapiens, UniProt P09917); test: 5-LOX Inhibitor Screening Assay Kit (Cayman); assay type: biochemical; conditions: for 5-LOX IC50 level: in words
T2 sequence (P09917 1-674): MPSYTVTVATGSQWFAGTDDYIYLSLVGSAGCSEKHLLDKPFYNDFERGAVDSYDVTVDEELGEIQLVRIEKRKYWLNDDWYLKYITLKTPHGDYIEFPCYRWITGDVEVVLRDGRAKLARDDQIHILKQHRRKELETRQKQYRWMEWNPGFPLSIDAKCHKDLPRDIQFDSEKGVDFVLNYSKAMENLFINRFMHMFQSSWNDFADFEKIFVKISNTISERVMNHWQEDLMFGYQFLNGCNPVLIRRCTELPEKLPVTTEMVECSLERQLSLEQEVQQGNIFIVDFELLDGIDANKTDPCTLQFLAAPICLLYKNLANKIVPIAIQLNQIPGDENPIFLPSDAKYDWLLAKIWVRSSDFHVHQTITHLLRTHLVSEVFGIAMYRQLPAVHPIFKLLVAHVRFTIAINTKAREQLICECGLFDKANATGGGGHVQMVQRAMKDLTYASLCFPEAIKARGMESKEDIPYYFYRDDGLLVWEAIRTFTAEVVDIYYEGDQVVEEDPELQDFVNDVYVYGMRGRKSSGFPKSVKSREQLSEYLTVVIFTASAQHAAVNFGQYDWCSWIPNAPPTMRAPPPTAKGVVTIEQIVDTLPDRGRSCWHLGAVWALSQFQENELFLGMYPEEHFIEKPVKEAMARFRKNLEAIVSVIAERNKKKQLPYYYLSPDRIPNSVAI
Description: as §1

[1] = system: carrageenan-induced rat paw oedema; test: carrageenan-induced rat paw oedema assay; assay type: in vivo, Sprague–Dawley rats; conditions: for Inhibition of acute inflammation % inh / Swel (mean difference in rat paw volume between right and left paw): dose equivalent to 70 mg kg-1 ibuprofen; for Swel (mean difference in rat paw volume between right and left paw): DMSO; for inflammation reduction % (4h): rat paw oedema, 4 h time interval, subcutaneous, equimolar to ibuprofen 70 mg kg-1
Description: According to a priori test results, experiments were conducted on young adult male Sprague–Dawley rats (5 rats per group), weighing 140–170 g. The animals were housed at cages in a temperature controlled (25 ± 1 °C) environment and were fed ad libitum with standard laboratory chow and allowed free access to water. […] The animal protocol is in accordance with the Animal Ethical Care regulations in the Faculty of Pharmacy, Helwan University.
Compounds (equimolar to the reference drug) were dissolved in DMSO and administrated subcutaneously. One hour later, paw oedema was induced by subplantar injection of 0.1 ml of 1% carrageenan (Sigma-Aldrich, St. Louis, MO) into the right hind paw. Paw volume was measured using a water plethysmometer (Basile, Comerio, Italy). The difference between the right and left paw volume was measured at 1, 2, 3, and 4 h after induction of inflammation.
The control group (five rats per group) received DMSO subcutaneously and carrageenan in the subplantar region. Results were expressed as percentage inhibition of inflammation.

COX-2 (human) = biological target: T3, COX-2 (human) (Homo sapiens, UniProt P35354); test: COX-2 (human) Inhibitor Screening Assay Kit (Cayman); assay type: biochemical; conditions: for selectivity index COX-2/COX-1: towards COX-2 than COX-1
T3 construct: purchased Cayman (Ann Arbor, MI) 701080
T3 sequence (P35354 18-604): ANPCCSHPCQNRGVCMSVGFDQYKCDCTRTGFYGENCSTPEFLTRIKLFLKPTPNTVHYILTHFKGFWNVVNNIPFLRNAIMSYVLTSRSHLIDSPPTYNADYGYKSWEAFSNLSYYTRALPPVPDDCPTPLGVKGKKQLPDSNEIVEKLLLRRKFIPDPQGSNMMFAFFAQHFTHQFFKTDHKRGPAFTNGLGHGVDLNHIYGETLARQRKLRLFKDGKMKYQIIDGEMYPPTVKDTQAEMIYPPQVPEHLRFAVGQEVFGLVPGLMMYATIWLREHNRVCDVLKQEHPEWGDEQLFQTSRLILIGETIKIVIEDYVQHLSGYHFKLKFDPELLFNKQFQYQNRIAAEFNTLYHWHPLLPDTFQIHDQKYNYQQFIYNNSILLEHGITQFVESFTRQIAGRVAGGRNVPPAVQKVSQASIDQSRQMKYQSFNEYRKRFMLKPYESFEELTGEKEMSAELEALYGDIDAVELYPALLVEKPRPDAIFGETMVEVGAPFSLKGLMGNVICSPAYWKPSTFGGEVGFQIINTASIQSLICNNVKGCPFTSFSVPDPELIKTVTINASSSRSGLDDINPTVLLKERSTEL
Description: as §1

SMILES | IC50 (COX-1 (human)) | 5-LOX inhibition, times higher than 8a (5-LOX; compared with 8a) [times] | 5-LOX inhibition, times higher than 8c (5-LOX; compared with 8c) [times] | 5-LOX IC50 level (5-LOX) | Inhibition of acute inflammation % inh ([1]; 1 h) [%] | Swel (mean difference in rat paw volume between right and left paw) ([1]; 1 h after carrageenan) | Inhibition of acute inflammation % inh ([1]; 2 h) [%] | Swel (mean difference in rat paw volume between right and left paw) ([1]; 2 h after carrageenan) | Inhibition of acute inflammation % inh ([1]; 3 h) [%] | Swel (mean difference in rat paw volume between right and left paw) ([1]; 3 h after carrageenan) | Inhibition of acute inflammation % inh ([1]; 4 h) [%] | Swel (mean difference in rat paw volume between right and left paw) ([1]; 4 h after carrageenan) | inflammation reduction % (4h) [1] | IC50 (COX-2 (human)) | COX-2 inhibition, times higher than 8a (COX-2 (human); compared with 8a) [times] | COX-2 inhibition, times higher than 8c (COX-2 (human); compared with 8c) [times] | selectivity index COX-2/COX-1 (COX-2 (human)) | melting point [°C] | affinity towards COX-1 over COX-2 (COX-1 (human)) | 5-LOX inhibition, times less potent than 7a (5-LOX; compared with 7a)
Cc1cc(C)c2c(N)c(C(=O)NN=Cc3ccccc3)sc2n1 [Compound 7a, 3-Amino-4,6-dimethyl-thieno [2,3-b] pyridine-2-carboxylic acid benzylidene-hyrazide] | 45.9 µM | 35 | 87 | nanomolar level | 37.68 | 0.143 | 42.3 | 0.15 | 71.2 | 0.156 | 73.54 | 0.16 | 73.5% and 73.54% | 9.99 µM | 3.6 | 1.8 | 4.6 |  |  | 
Cc1cc(C)c2c(N)c(C(=O)N/N=C/c3ccc(Cl)cc3)sc2n1 [Compound 7b, 3-Amino-4,6-dimethyl-thieno [2,3-b] pyridine-2-carboxylic acid (4-chloro-benzylidene)-hyrazide] | 31.8 µM |  |  | nanomolar level | 22.1 | 0.17 | 35.62 | 0.16 | 54.75 | 0.25 | 73.02 | 0.17 | 73.02% | 7.5 µM and 7.52 µM |  |  | 4.2 | 280 to 282 |  | 
Cc1cc(C)c2c(n1)sc1c(=O)n(/N=C/c3ccc(Cl)cc3)nnc12 [Compound 8b, 7,9-Dimethyl-3-[(4-chloro-phenyl-methylene)amino]pyrido[3ˈ,2ˈ:4,5] thieno [3,2-d][1,2,3]triazin-4(3H)-one] | 19.9 µM |  |  | micromolar level | 0 | 0.23 | 0 | 0.27 | 56.54 | 0.24 | 78.23 | 0.14 | 78.2% and 78.23% | 36 µM |  |  |  | 255 to 257 | approximately 2 fold | approximately 90 times
COc1ccc(/C=N/n2nnc3c(sc4nc(C)cc(C)c43)c2=O)cc1 [Compound 8c, 7,9-Dimethyl-3-[(4-methoxy-phenyl-methylene)amino]pyrido[3ˈ,2ˈ:4,5]thieno [3,2-d][1,2,3]triazin-4(3H)-one] | 7.7 µM and 7.66 µM |  |  | micromolar level | 0 | 0.246 | 34.61 | 0.17 | 41.78 | 0.316 | 79.36 | 0.13 | 79.4% and 79.36% | 19 µM |  |  |  | 240 to 242 | approximately 2 fold | 
